The text below walks through data of patent publication US10604554B2, “Double-acylated GLP-1 derivatives” (Novo Nordisk A/S, priority 2012, dated 2020).

One may read the EC50 as the concentration at which the effect is half-maximal. As usually defined, the IC50 is the point on the concentration scale where inhibition reaches its midpoint.

Like-named read-outs stand apart in the source and are kept apart here. Numbered stars: 1 amine (or outer) side, 2 acyl side, 3 side chain; on linkers, the order of the positions; unused ones are H or OH. Square brackets hold non-standard residues; d marks the D form. Side chains are listed from the residue outwards. Peptide text beside a SMILES is read from it. * marks the point of attachment. C18 diacid = O=C(O)CCCCCCCCCCCCCCCCC(=O)*; γGlu = O=C(O)[C@H](CCC(=O)[*:2])N[*:1]; εLys = N[C@@H](CCCCN[*:1])C(=O)[*:2]; AEEA = NCCOCCOCC(=O)O; Aib = CC(C)(N)C(=O)O

The target in test [1] is T1, human GLP-1 receptor (Homo sapiens, UniProt P43220).
T1 construct: expressed in transfected cells; host or cells: BHK cells, clone FCW467-12A/KZ10-1 (parent line BHKTS13), further transfected with CRE luciferase
T1 sequence (P43220 24-463): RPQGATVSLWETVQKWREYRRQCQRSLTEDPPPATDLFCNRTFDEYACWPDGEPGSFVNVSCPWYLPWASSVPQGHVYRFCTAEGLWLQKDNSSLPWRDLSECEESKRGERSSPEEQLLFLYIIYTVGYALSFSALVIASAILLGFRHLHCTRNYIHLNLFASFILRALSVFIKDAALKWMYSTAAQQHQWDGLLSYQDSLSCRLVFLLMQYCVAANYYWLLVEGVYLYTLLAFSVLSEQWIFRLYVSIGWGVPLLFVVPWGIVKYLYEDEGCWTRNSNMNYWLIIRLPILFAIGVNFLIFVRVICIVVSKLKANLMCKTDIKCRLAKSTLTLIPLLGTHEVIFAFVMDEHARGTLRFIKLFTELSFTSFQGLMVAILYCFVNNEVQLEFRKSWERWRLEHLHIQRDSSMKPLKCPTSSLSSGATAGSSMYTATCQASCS
As to the kind of experiment: In vitro potency (CRE luciferase; whole cells). Type of test: cell-based. Also noted: EC50/pM (ratio 1% HSA/0% HSA): unit not given here. The note with it: for EC50: BHK cells; for EC50/pM (ratio 1% HSA/0% HSA): ratio of EC50 at 1% HSA to EC50 at 0% HSA. The method in brief:
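Stably transfected BHK cells carrying human GLP-1R and a CRE–firefly luciferase reporter, 5×10^3 cells/well in assay medium, run with 0% or 1% HSA in assay buffer.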

Test [2] addresses T1, human GLP-1 receptor. As to the kind of experiment: GLP-1 receptor binding (SPA, displacement of 125I-GLP-1). The settings on record: for IC50: 0.001% HSA (low albumin), read-out: Receptor binding affinity IC50 (low HSA); for IC50 (high HSA): Receptor binding affinity IC50 (high HSA), 2.0% HSA (high albumin), heading: Receptor binding affinity IC50. The method in brief:
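Membranes from a stably transfected hamster cell line, 5-10 ug protein/sample, with WGA SPA beads and [125I]-GLP-1(7-36)NH2 at 0.06 nM final. Incubated 120 min at 30 °C with shaking, then counted.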

Where [3] appears, read: 0% HSA, read-out: In vitro potency (CRE luciferase) EC50 (0% HSA).
[4] abbreviates: In vitro potency (CRE luciferase) EC50 (1% HSA), 1% HSA.

`CC[C@H](C)[C@H](NC(=O)[C@H](Cc1ccccc1)NC(=O)[C@H](CCC(=O)O)NC(=O)[C@H](CCCCNC(=O)[C@@H](N)CCCCNC(=O)[C@@H](N)CCCCNC(=O)CC[C@H](NC(=O)CCCCCCCCCCCCCCCCC(=O)O)C(=O)O)NC(=O)[C@H](C)NC(=O)[C@H](C)NC(=O)[C@H](CCC(N)=O)NC(=O)CNC(=O)[C@H](CCC(=O)O)NC(=O)[C@H](CC(C)C)NC(=O)[C@H](Cc1ccc(O)cc1)NC(=O)[C@H](CO)NC(=O)[C@H](CO)NC(=O)[C@@H](NC(=O)[C@H](CC(=O)O)NC(=O)[C@H](CO)NC(=O)[C@@H](NC(=O)[C@H](Cc1ccccc1)NC(=O)[C@@H](NC(=O)CNC(=O)[C@H](CCC(=O)O)NC(=O)C(C)(C)NC(=O)[C@@H](N)Cc1c[nH]cn1)[C@@H](C)O)[C@@H](C)O)C(C)C)C(=O)N[C@@H](C)C(=O)N[C@@H](Cc1c[nH]c2ccccc12)C(=O)N[C@@H](CC(C)C)C(=O)N[C@H](C(=O)N[C@@H](CCCNC(=N)N)C(=O)NCC(=O)N[C@@H](CCCNC(=N)N)C(=O)N[C@@H](CCCCNC(=O)[C@@H](N)CCCCNC(=O)[C@@H](N)CCCCNC(=O)CC[C@H](NC(=O)CCCCCCCCCCCCCCCCC(=O)O)C(=O)O)C(=O)O)C(C)C` [Example 27, N^ε26-[(2S)-2-amino-6-[[(2S)-2-amino-6-[[(4S)-4-carboxy-4-(17-carboxyheptadecanoylamino)butanoyl]amino]hexanoyl]amino]hexanoyl], N^ε37-[(2S)-2-amino-6-[[(2S)-2-amino-6-[[(4S)-4-carboxy-4-(17-carboxyheptadecanoylamino)butanoyl]amino]hexanoyl]amino]hexanoyl]-[Aib^8,Arg^34,Lys^37]-GLP-1-(7-37)-peptide]: the EC50 at human GLP-1 receptor [1] (setting [3]) was found to be 0.022 nM. In addition, the half-maximal effective concentration (EC50) at human GLP-1 receptor [1] (setting [4]) came out at 6.19 nM. At human GLP-1 receptor [1], the “EC50/pM (ratio 1% HSA/0% HSA)” value came to 276. On human GLP-1 receptor [2], the IC50 came out at 0.25 nM and the IC50 (high HSA) is 689 nM.
Turning to `CC[C@H](C)[C@H](NC(=O)[C@H](Cc1ccccc1)NC(=O)[C@H](CCC(=O)O)NC(=O)[C@H](CCCCNC(=O)[C@@H](N)CCCCNC(=O)COCCOCCNC(=O)COCCOCCNC(=O)CC[C@H](NC(=O)CCCCCCCCCCCCCCCCC(=O)O)C(=O)O)NC(=O)[C@H](C)NC(=O)[C@H](C)NC(=O)[C@H](CCC(N)=O)NC(=O)[C@H](CCC(=O)O)NC(=O)[C@H](CCC(=O)O)NC(=O)[C@H](CC(C)C)NC(=O)[C@H](Cc1ccc(O)cc1)NC(=O)[C@H](CO)NC(=O)[C@H](CO)NC(=O)[C@@H](NC(=O)[C@H](CC(=O)O)NC(=O)[C@H](CO)NC(=O)[C@@H](NC(=O)[C@H](Cc1ccccc1)NC(=O)[C@@H](NC(=O)CNC(=O)[C@H](CCC(=O)O)NC(=O)C(C)(C)NC(=O)[C@@H](N)Cc1c[nH]cn1)[C@@H](C)O)[C@@H](C)O)C(C)C)C(=O)N[C@@H](C)C(=O)N[C@@H](Cc1c[nH]c2ccccc12)C(=O)N[C@@H](CC(C)C)C(=O)N[C@H](C(=O)N[C@@H](CCC(N)=O)C(=O)NCC(=O)N[C@@H](CCCNC(=N)N)C(=O)N[C@@H](CCCCNC(=O)[C@@H](N)CCCCNC(=O)COCCOCCNC(=O)COCCOCCNC(=O)CC[C@H](NC(=O)CCCCCCCCCCCCCCCCC(=O)O)C(=O)O)C(=O)O)C(C)C` [Example 28, N^ε26-[(2S)-2-amino-6-[[2-[2-[2-[[2-[2-[2-[[(4S)-4-carboxy-4-(17-carboxyheptadecanoylamino)butanoyl]amino]ethoxy]ethoxy]acetyl]amino]ethoxy]ethoxy]acetyl]amino]hexanoyl], N^ε37-[(2S)-2-amino-6-[[2-[2-[2-[[2-[2-[2-[[(4S)-4-carboxy-4-(17-carboxyheptadecanoylamino)butanoyl]amino]ethoxy]ethoxy]acetyl]amino]ethoxy]ethoxy]acetyl]amino]hexanoyl]-[Aib^8,Glu^22,Gln^34, Lys^37]-GLP-1-(7-37)-peptide] (H-H[Aib]EGTFTSDVSSYLEEQAAK([εLys-AEEA-AEEA-γGlu-C18 diacid])EFIAWLVQGRK([εLys-AEEA-AEEA-γGlu-C18 diacid])-OH; N-terminus and C-terminus assumed), the EC50 on human GLP-1 receptor [1] (setting [3]) was 0.017 nM. At human GLP-1 receptor [1] (setting [4]), the EC50 is 5.73 nM. Moreover, the “EC50/pM (ratio 1% HSA/0% HSA)” value at human GLP-1 receptor [1] is given as 329. Besides, on human GLP-1 receptor [2], the IC50 is 1.67 nM and the IC50 (high HSA) is not below 1000 nM.
